From US8952128B2, “Somatostatin-dopamine chimeric analogs” (priority 2012, dated 2015)
Bridge positions count the residues as written; N and C are the ends. Square brackets hold non-standard residues; d marks the D form. Peptide text beside a SMILES is read from it. * marks the point of attachment. X2 = CN1C[C@H](CSCC(=O)*)C[C@@H]2c3cccc4[nH]cc(c34)C[C@H]21; 4Pal = N[C@@H](Cc1ccncc1)C(=O)O

Molecular target: hSSTR2 (Homo sapiens (Human), UniProt P30874)
Test: Intracellular calcium mobilization assay (FLIPR Calcium 4), hSSTR2;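 further: agonist activity read as intracellular calcium rise in cells expressing human SSTR2, loaded with a calcium-sensitive dye for 60 min at 37 °C, measured by FLIPR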
Format: cell-based
Conditions: for Emax: read-out: hSSTR2 % Emax ± SEM; for improvement in EC50 over Reference Compound A: Student's t-test, one-tailed, p <0.05
Description: The ability of select compounds according to the present invention to activate hSSTR2 and hDRD2 was determined by the intracellular calcium mobilization assay using FLIPR Calcium 4 assay kit (Molecular Devices).
Cells expressing hSSTR2 or hDRD2 were plated in 384-well microplates in tissue culture media and incubated for 16-24 hours at 37° C. in a humidified atmosphere with 5% CO2. Medium was replaced by loading buffer containing Hank's buffered saline, 20 mM HEPES, 2.5 mM probenecid and Calcium 4 dye, and the plates were incubated at 37° C. for 60 minutes.

hSSTR2, sequence (P30874 whole entry): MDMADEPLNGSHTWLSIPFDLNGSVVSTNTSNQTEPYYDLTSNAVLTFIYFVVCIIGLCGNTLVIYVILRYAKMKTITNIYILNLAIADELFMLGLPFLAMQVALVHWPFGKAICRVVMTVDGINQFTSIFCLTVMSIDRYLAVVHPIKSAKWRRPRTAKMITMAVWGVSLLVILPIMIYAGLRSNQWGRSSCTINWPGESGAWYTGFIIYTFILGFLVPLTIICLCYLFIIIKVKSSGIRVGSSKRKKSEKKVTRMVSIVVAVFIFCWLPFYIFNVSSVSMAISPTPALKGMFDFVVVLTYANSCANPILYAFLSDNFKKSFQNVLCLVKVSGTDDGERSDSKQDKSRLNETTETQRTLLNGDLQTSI

SMILES	Emax [%]	improvement in EC50 over Reference Compound A
C[C@@H](O)[C@@H]1NC(=O)[C@H](CCCCN)NC(=O)[C@@H](Cc2c[nH]c3ccccc23)NC(=O)[C@H](Cc2ccccc2)NC(=O)[C@H](Cc2ccccc2)NC(=O)[C@H](CCCNC(=N)N)NC(=O)[C@H](NCCCC[C@@H]2C[C@@H]3c4cccc5[nH]cc(c45)C[C@H]3N(C)C2)CCCCNC(=O)[C@H](Cc2ccc(F)cc2)NC1=O [Compound 2, (D-6-methyl-8β-ergolinyl)-butanoyl-psi(CH2NH)-cyclo(DLys-Arg-Phe-Phe-DTrp-Lys-Thr-4FPhe)]	100 ± 1.7	–
C[C@@H](O)[C@@H]1NC(=O)[C@H](CCCCN)NC(=O)[C@@H](Cc2c[nH]c3ccccc23)NC(=O)[C@H](Cc2ccccc2)NC(=O)[C@H](Cc2ccccc2)NC(=O)[C@H](CCCNC(=N)N)NC(=O)[C@H](NCCCCC[C@@H]2C[C@@H]3c4cccc5[nH]cc(c45)C[C@H]3N(C)C2)CCCCNC(=O)[C@H](Cc2ccc(F)cc2)NC1=O [Compound 3, (D-6-methyl-8β-ergolinyl)-pentanoyl-psi(CH2NH)-cyclo(DLys-Arg-Phe-Phe-DTrp-Lys-Thr-4FPhe)]	98.8 ± 19.2	–
C[C@@H](O)[C@@H]1NC(=O)[C@H](CCCCN)NC(=O)[C@@H](Cc2c[nH]c3ccccc23)NC(=O)[C@H](Cc2ccccc2)NC(=O)[C@H](Cc2ccccc2)NC(=O)[C@H](CCCNC(=N)N)NC(=O)[C@H](NCCSC[C@@H]2C[C@@H]3c4cccc5[nH]cc(c45)C[C@H]3N(C)C2)CCCCNC(=O)[C@H](Cc2ccc(F)c(F)c2)NC1=O [Compound 6A, Dop1-psi(CH2NH)-cyclo(DLys-Arg-Phe-Phe-DTrp-Lys-Thr-3,4FPhe)]	99.5 ± 2.6	–
C[C@@H](O)[C@@H]1NC(=O)[C@H](CCCCN)NC(=O)[C@@H](Cc2c[nH]c3ccccc23)NC(=O)[C@H](Cc2ccccc2)NC(=O)[C@H](Cc2ccccc2)NC(=O)[C@H](CCCNC(=N)N)NC(=O)[C@H](NCCSC[C@@H]2C[C@@H]3c4cccc5[nH]cc(c45)C[C@H]3N(C)C2)CCCCNC(=O)[C@H](Cc2cc(F)cc(F)c2)NC1=O [Compound 6B, Dop1-psi(CH2NH)-cyclo(DLys-Arg-Phe-Phe-DTrp-Lys-Thr-3,5FPhe)]	95.2 ± 6.8	–
C[C@@H](O)[C@@H]1NC(=O)[C@H](CCCCN)NC(=O)[C@@H](Cc2c[nH]c3ccccc23)NC(=O)[C@H](Cc2ccccc2)NC(=O)[C@H](Cc2ccccc2)NC(=O)[C@H](CCCNC(=N)N)NC(=O)[C@H](NCCSC[C@@H]2C[C@@H]3c4cccc5[nH]cc(c45)C[C@H]3N(C)C2)CCCCNC(=O)[C@H](Cc2cccc(F)c2)NC1=O [Compound 6C, Dop1-psi(CH2NH)-cyclo(DLys-Arg-Phe-Phe-DTrp-Lys-Thr-3FPhe)]	97.7 ± 6.9	–
C[C@@H](O)[C@@H]1NC(=O)[C@H](CCCCN)NC(=O)[C@@H](Cc2c[nH]c3ccccc23)NC(=O)[C@H](Cc2ccccc2)NC(=O)[C@H](Cc2ccccc2)NC(=O)[C@H](CCCNC(=N)N)NC(=O)[C@H](NCCSC[C@@H]2C[C@@H]3c4cccc5[nH]cc(c45)C[C@H]3N(C)C2)CCCCNC(=O)[C@H](Cc2ccccc2F)NC1=O [Compound 6D, Dop1-psi(CH2NH)-cyclo(DLys-Arg-Phe-Phe-DTrp-Lys-Thr-2FPhe)]	96.9 ± 8.7	–
C[C@@H](O)[C@@H]1NC(=O)[C@H](CCCCN)NC(=O)[C@@H](Cc2c[nH]c3ccccc23)NC(=O)[C@H](Cc2ccccc2)NC(=O)[C@H](Cc2ccccc2)NC(=O)[C@H](CCCNC(=N)N)NC(=O)[C@H](NCCSC[C@@H]2C[C@@H]3c4cccc5[nH]cc(c45)C[C@H]3N(C)C2)CCCCNC(=O)[C@H](Cc2c(F)c(F)c(F)c(F)c2F)NC1=O [Compound 6E, Dop1-psi(CH2NH)-cyclo(DLys-Arg-Phe-Phe-DTrp-Lys-Thr-2,3,4,5,6FPhe)]	90.4 ± 6.8	–
C[C@@H](O)[C@@H]1NC(=O)[C@H](CCCCN)NC(=O)[C@@H](Cc2c[nH]c3ccccc23)NC(=O)[C@H](Cc2ccccc2)NC(=O)[C@H](Cc2ccccc2)NC(=O)[C@H](CCCNC(=N)N)NC(=O)[C@H](NC[C@H](Cc2ccc(O)cc2)NC(=O)C[S+]([O-])C[C@@H]2C[C@@H]3c4cccc5[nH]cc(c45)C[C@H]3N(C)C2)CCCCNC(=O)[C@H](Cc2ccc(F)cc2)NC1=O (stereo partly drawn) [Compound 13, Dop1(SO)-Tyr-psi(CH2NH)-cyclo(DLys-Arg-Phe-Phe-DTrp-Lys-Thr-4FPhe)]	100 ± 0.7	–
C[C@@H](O)[C@@H]1NC(=O)[C@H](CCCCN)NC(=O)[C@@H](Cc2c[nH]c3ccccc23)NC(=O)[C@H](Cc2ccccc2)NC(=O)[C@H](Cc2ccccc2)NC(=O)[C@H](CCCNC(=N)N)NC(=O)[C@H](NCC[S+]([O-])C[C@@H]2C[C@@H]3c4cccc5[nH]cc(c45)C[C@H]3N(C)C2)CCCCNC(=O)[C@H](Cc2ccc(F)cc2)NC1=O (stereo partly drawn) [Compound 14, Dop1(SO)-psi(CH2NH)-cyclo(DLys-Arg-Phe-Phe-DTrp-Lys-Thr-4FPhe)]	102 ± 2.2	–
C[C@@H](O)[C@@H]1NC(=O)[C@H](CCCCN)NC(=O)[C@@H](Cc2c[nH]c3ccccc23)NC(=O)[C@H](Cc2ccncc2)NC(=O)[C@H](Cc2ccccc2)NC(=O)[C@H](CCCNC(=N)N)NC(=O)[C@H](NC[C@H](Cc2ccc(O)cc2)NC(=O)C[S+]([O-])C[C@@H]2C[C@@H]3c4cccc5[nH]cc(c45)C[C@H]3N(C)C2)CCCCNC(=O)[C@H](Cc2ccccc2)NC1=O (stereo partly drawn) [Compound 15, Dop1(SO)-Tyr-psi(CH2NH)-cyclo(DLys-Arg-Phe-4Pal-DTrp-Lys-Thr-Phe)]	99.9 ± 1.9	–
C[C@@H](O)[C@@H]1NC(=O)[C@H](CCCCN)NC(=O)[C@@H](Cc2c[nH]c3ccccc23)NC(=O)[C@H](Cc2ccncc2)NC(=O)[C@H](Cc2ccccc2)NC(=O)[C@H](CCCNC(=N)N)NC(=O)[C@H](NC[C@H](CCCCNC(=O)C[S+]([O-])C[C@@H]2C[C@@H]3c4cccc5[nH]cc(c45)C[C@H]3N(C)C2)NC(=O)C[S+]([O-])C[C@@H]2C[C@@H]3c4cccc5[nH]cc(c45)C[C@H]3N(C)C2)CCCCNC(=O)[C@H](Cc2ccc(O)cc2)NC1=O (stereo partly drawn) [Compound 16, Dop1(SO)-Lys[Dop1(SO)]-psi(CH2NH)-cyclo(DLys-Arg-Phe-4Pal-DTrp-Lys-Thr-Tyr)]	103 ± 2.3	–
C[C@@H](O)[C@@H]1NC(=O)[C@H](CCCCN)NC(=O)[C@@H](Cc2c[nH]c3ccccc23)NC(=O)[C@H](Cc2ccncc2)NC(=O)[C@H](Cc2ccccc2)NC(=O)[C@H](CCCNC(=N)N)NC(=O)[C@H](NC[C@H](CCCCNC(=O)C[S+]([O-])C[C@@H]2C[C@@H]3c4cccc5[nH]cc(c45)C[C@H]3N(C)C2)NC(=O)C[S+]([O-])C[C@@H]2C[C@@H]3c4cccc5[nH]cc(c45)C[C@H]3N(C)C2)CCCCNC(=O)[C@H](Cc2ccccc2)NC1=O (stereo partly drawn) [Compound 17, Dop1(SO)-Lys[Dop1(SO)]-psi(CH2NH)-cyclo(DLys-Arg-Phe-4Pal-DTrp-Lys-Thr-Phe)]	105 ± 4.2	–
C[C@@H](O)[C@@H]1NC(=O)[C@H](CCCCN)NC(=O)[C@@H](Cc2c[nH]c3ccccc23)NC(=O)[C@H](Cc2ccccc2)NC(=O)[C@H](Cc2ccccc2)NC(=O)[C@H](CCCNC(=N)N)NC(=O)[C@H](NC[C@H](Cc2ccc(O)cc2)NC(=O)CS(=O)(=O)C[C@@H]2C[C@@H]3c4cccc5[nH]cc(c45)C[C@H]3N(C)C2)CCCCNC(=O)[C@H](Cc2ccc(F)cc2)NC1=O [Compound 19, Dop1(SO2)-Tyr-psi(CH2NH)-cyclo(DLys-Arg-Phe-Phe-DTrp-Lys-Thr-4FPhe)]	99.5 ± 1.8	–
C[C@@H](O)[C@@H]1NC(=O)[C@H](CCCCN)NC(=O)[C@@H](Cc2c[nH]c3ccccc23)NC(=O)[C@H](Cc2ccncc2)NC(=O)[C@H](Cc2ccccc2)NC(=O)[C@H](CCCNC(=N)N)NC(=O)[C@H](NC[C@H](Cc2ccc(O)cc2)NC(=O)CS(=O)(=O)C[C@@H]2C[C@@H]3c4cccc5[nH]cc(c45)C[C@H]3N(C)C2)CCCCNC(=O)[C@H](Cc2ccccc2)NC1=O [Compound 21, Dop1(SO2)-Tyr-psi(CH2NH)-cyclo(DLys-Arg-Phe-4Pal-DTrp-Lys-Thr-Phe)]	100 ± 1.8	–
CC(=O)N(CCCNC[C@@H]1C[C@@H]2c3cccc4[nH]cc(c34)C[C@H]2N(C)C1)[C@@H]1CCCCNC(=O)[C@H](Cc2ccc(F)cc2)NC(=O)[C@H]([C@@H](C)O)NC(=O)[C@H](CCCCN)NC(=O)[C@@H](Cc2c[nH]c3ccccc23)NC(=O)[C@H](Cc2ccccc2)NC(=O)[C@H](Cc2ccccc2)NC(=O)[C@H](CCCNC(=N)N)NC1=O [Compound 22, 3-[N-(D-6-methyl-8β-ergolinylmethyl)]-aminopropionyl-psi(CH2NAc)-cyclo(DLys-Arg-Phe-Phe-DTrp-Lys-Thr-4FPhe)]	99.1 ± 12.6	–
C[C@@H](O)[C@@H]1NC(=O)[C@H](CCCCN)NC(=O)[C@@H](Cc2c[nH]c3ccccc23)NC(=O)[C@H](Cc2ccncc2)NC(=O)[C@H](Cc2ccccc2)NC(=O)[C@H](CCCNC(=N)N)NC(=O)[C@H](NCCSC[C@@H]2C[C@@H]3c4cccc5[nH]cc(c45)C[C@H]3N(C)C2)CCCCNC(=O)[C@H](Cc2ccccc2)NC1=O [Compound 23, Dop1-psi(CH2NH)-cyclo(DLys-Arg-Phe-4Pal-DTrp-Lys-Thr-Phe)]	95.4 ± 3.3	statistically significant improvement
C[C@@H](O)[C@@H]1NC(=O)[C@H](CCCCN)NC(=O)[C@@H](Cc2c[nH]c3ccccc23)NC(=O)[C@H](Cc2ccncc2)NC(=O)[C@H](Cc2ccccc2)NC(=O)[C@H](CCCNC(=N)N)NC(=O)[C@H](NC(=O)CSC[C@@H]2C[C@@H]3c4cccc5[nH]cc(c45)C[C@H]3N(C)C2)CCCCNC(=O)[C@H](Cc2ccc(O)cc2)NC1=O [Compound 25, Dop1-cyclo(DLys-Arg-Phe-4Pal-DTrp-Lys-Thr-Tyr)] (X2-[dK]RF[4Pal][dW]KTY; lactam 1-C)	93.9 ± 6.7	statistically significant improvement
C[C@@H](O)[C@@H]1NC(=O)[C@H](CCCCN)NC(=O)[C@@H](Cc2c[nH]c3ccccc23)NC(=O)[C@H](Cc2ccccc2)NC(=O)[C@H](Cc2ccccc2)NC(=O)[C@H](CCCNC(=N)N)NC(=O)[C@H](NCCSC[C@@H]2C[C@@H]3c4cccc5[nH]cc(c45)C[C@H]3N(C)C2)CCCCNC(=O)[C@H](Cc2ccccc2)NC1=O [Compound 26, Dop1-psi(CH2NH)-cyclo(DLys-Arg-Phe-Phe-DTrp-Lys-Thr-Phe)]	90.2 ± 12.6	–
